Results: patent US20250066360A1, “PYRIDINE-CONTAINING POLYCYCLIC DERIVATIVE, AND PREPARATION METHOD THEREFOR AND USE THEREOF” (SHANGHAI HANSOH BIOMEDICAL CO., LTD., priority 2022, published 2025)
Read-outs that look alike come from different tables or passages of the source.

Tests used:
TNF-α in U937 cells = assay: Inhibition of the expression level of TNF-α in LPS-stimulated U937 cells (ELISA); format: cell-based; settings: Homo sapiens, U-937; PMA-differentiated U937, 10 ng/ml LPS 4 hours; read-out: U937 cell activity test TNF-α IC50
Method: U937 cells were treated with 20 ng/ml PMA for differentiation overnight, and after replacement with a fresh culture medium, the U937 cells were rested overnight. After differentiation, the U937 cells were digested and counted, and 50,000 cells per well were seeded in a 96-well plate until the cells adhered to the wall. A compound concentration gradient was prepared, the cells were pretreated with the compound for 1 hour (the highest final concentration of the compound was 1 μM, diluted in 3-fold concentration gradient), and 10 ng/ml LPS (Lipopolysaccharides from Escherichia coli O111:B4) was added for stimulation for 4 hours. Thereafter, the culture supernatant was collected by centrifugation and used for subsequent ELISA to detect the concentration of TNF-α in the supernatant. The concentration of TNF-α was detected according to the standard steps provided by the ELISA kit manufacturer.
A standard curve was plotted by a linear regression method from a TNF-α standard, and the concentration of TNF-α in a sample was derived by conversion according to the standard curve.
(§1) Calculation of inhibition rate: Inhibition rate %=[(mean value of TNF-α concentration in positive control well−mean value of TNF-α concentration in sample well)/(mean value of TNF-α concentration in positive control well−mean value of TNF-α concentration in negative control well)]×100%, wherein the positive control well was a well without a compound (DMSO-treated well), and the negative control well was a culture medium well.
Dose response curve fitting: Log(inhibitor) vs. response−Variable slope (four parameters) in GraphPad Prism 6 was used for fitting equation analysis of the compound concentration and the corresponding inhibition rate, and the curve was fitted to obtain the IC50 value of the compound. The fitting calculation equation was Y=Bottom+(Top−Bottom)/(1+10^((Log IC50−X)*HillSlope)).

[1] = molecular target: T1, p38a (Active p38 alpha Protein) (Homo sapiens, UniProt Q16539); assay: Inhibition of p38 enzyme activity (TR-FRET, ULight-MBP); format: biochemical; settings: 3 nM p38a, 50 μM ATP
T1 construct: purchased R & D systems 5477-KS-010
T1 sequence (Q16539 whole entry): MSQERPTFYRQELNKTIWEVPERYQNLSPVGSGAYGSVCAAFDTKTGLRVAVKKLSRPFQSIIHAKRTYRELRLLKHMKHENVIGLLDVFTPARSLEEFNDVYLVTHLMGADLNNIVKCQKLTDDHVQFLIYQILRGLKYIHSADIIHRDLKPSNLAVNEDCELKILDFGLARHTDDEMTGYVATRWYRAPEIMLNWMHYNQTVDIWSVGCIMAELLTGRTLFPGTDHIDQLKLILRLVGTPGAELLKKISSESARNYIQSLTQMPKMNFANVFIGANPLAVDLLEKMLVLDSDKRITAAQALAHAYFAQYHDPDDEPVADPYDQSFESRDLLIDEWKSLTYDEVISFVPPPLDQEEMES
Method: Experimental method for determining the p38 enzyme activity: 3 nM p38a (Active p38 alpha Protein) and compounds diluted in a certain concentration gradient were incubated in 1× enzyme reaction buffer (50 mM HEPES pH 7.5, 1 mM EGTA, 10 mM MgCl2, 2 mM DTT, 0.01% Tween-20) for 1 hour. 50 nM ULight-MBP and 50 μM ATP (ATP 10 mM Solution) were added, and the mixture was reacted at room temperature for 1.5 hours. An equal volume of a detection and termination mixed solution (1×LANCE detection buffer containing 20 mM EDTA and 2 nM Europium-anti-P-MBP) was added, the mixture was mixed until uniform and centrifuged, a plate sealing film was attached, and a reaction was performed at room temperature for 1 hour. TR-FRET program of the EnVision instrument was used to read the plate, and the fluorescence value of each well was detected at 665 nm/615 nm.
(§2) Calculation was performed on the raw data (665 nm/615 nm reading ratio) according to the following formula to obtain the inhibition rate. Inhibition rate %=[(mean value in positive control well−value in sample well)/(mean value in positive control well−mean value in negative control well)]×100, wherein the positive control well was a reaction well without a compound […], and the negative control well was a reaction wells without an enzyme.
(§3) Log(inhibitor) vs. response−Variable slope (four parameters) in GraphPad Prism 6 was used for fitting equation analysis of the compound concentration and the corresponding inhibition rate, and the curve was fitted to obtain the IC50 value of the compound.
(§4) The fitting calculation equation was Y=Bottom+(Top−Bottom)/(1+10^((Log IC50−X)*HillSlope)).

[2] = Pharmacokinetic assay in SD rats (PO administration); format: in vivo; settings: male, Sprague-Dawley (SD), rat, plasma; for AUC(0-inf): read-out: Area under the curve AUC0-∞; for half-life: read-out: Half-life t1/2 (converted); for MRT: read-out: Mean residence time MRT; for Cmax: read-out: Plasma concentration Cmax; for Tmax: read-out: Time to peak tmax
Method: SD rats were used as test animals to study the pharmacokinetic behavior of the compounds of the present invention in the rat body (plasma) after oral administration at a dose of 5 mg/kg or 2 mg/kg and intravenous administration at a dose of 1 mg/kg.
3 SD rats/group, male, from Shanghai Jiesijie Experimental Animal Co., Ltd., animal production license number (SCXK (Shanghai) 2013-0006 N0.311620400001794).
PO, 10% solutol HS15 was dissolved by ultrasound and prepared into a clear solution or homogeneous suspension.
3 SD rats/group, male; After fasting overnight, the rats were administered p.o. at a dose of 5 mg/kg or 2 mg/kg with a dosage volume of 10 mL/kg and i.v. at a dose 1 mg/kg with a dosage volume of 5 mL/kg, respectively.
At 0.25, 0.5, 1, 2, 4, 6, 8, and 24 h after oral administration in the rats and at 0.083, 0.25, 0.5, 1, 2, 4, 6, 8, and 24 h after intravenous administration in the rats, 0.2 mL of blood was collected from the jugular vein, placed in an EDTA-K2 test tube, centrifuged at 4° C. at 6000 rpm for 6 min to separate plasma, which was stored at −80° C.
• 1) 100 μL of acetonitrile was added to 20 μL of plasma sample for pelleting, and it was mixed and centrifuged at 3500×g for 5-20 min. • 2) The treated supernatant solution was taken and subjected to LC/MS/MS to analyze the concentrations of the test compounds. LC/MS/MS analysis instrument: AB Sciex API 4000 Qtrap.
• Liquid phase conditions: Shimadzu LC-20AD pump • Chromatographic column: Waters Xbridge C18 5 μm, 4.6×50 mm, mobile phase: liquid A was 0.1% aqueous formic acid solution, and liquid B was methanol • Flow rate: 1.0 mL/min • Elution time: 0-4.0 min, the eluent was as follows:
The main pharmacokinetic parameters were calculated using WinNonlin 6.1.

p38α/MK2 = molecular target: T2, p38α/MK2 (Homo sapiens, UniProt P49137+Q16539); assay: Inhibition of p38α/MK2 enzyme activity (TR-FRET, ULight-CREBtide); format: biochemical; settings: for IC50: 0.06 nM p38a, 1.2 nM MK2, 25 μM ATP, read-out: p38/MK2 IC50; for Selectivity ratio (p38 IC50 / p38/MK2 IC50): selectivity ratio p38 IC50 over p38/MK2 IC50
T2 construct: purchased R & D systems (p38 alpha); Thermo (MK2) 5477-KS-010; PV3316
T2 sequence (Q16539 whole entry): as above
T2 sequence (P49137 whole entry): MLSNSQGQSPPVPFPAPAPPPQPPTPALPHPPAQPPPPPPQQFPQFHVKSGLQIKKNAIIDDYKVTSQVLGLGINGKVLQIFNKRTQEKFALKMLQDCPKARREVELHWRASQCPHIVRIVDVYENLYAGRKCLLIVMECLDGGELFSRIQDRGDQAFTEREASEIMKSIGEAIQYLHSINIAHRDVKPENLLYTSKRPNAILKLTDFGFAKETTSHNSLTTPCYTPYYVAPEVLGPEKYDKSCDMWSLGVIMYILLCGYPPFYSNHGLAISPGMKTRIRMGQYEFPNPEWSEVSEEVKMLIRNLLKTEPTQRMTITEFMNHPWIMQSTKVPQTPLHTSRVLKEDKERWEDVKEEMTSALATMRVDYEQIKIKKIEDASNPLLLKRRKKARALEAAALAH
Method: 50 nM ULight-CREBtide and 25 μM ATP (ATP Solution) were added, and the mixture was reacted at room temperature for 1.5 hours. An equal volume of a detection and termination mixed solution (1×LANCE detection buffer containing 20 mM EDTA and 2 nM Europium-anti-phospho-CREB) was added, the mixture was mixed until uniform and centrifuged, a plate sealing film was attached, and a reaction was performed at room temperature for 1 hour. TR-FRET program of the EnVision instrument was used to read the plate, and the fluorescence value of each well was detected at 665 nm/615 nm.
as §2, §3, §4

p-Hsp27 in U937 cells = assay: Inhibition of p-Hsp27 in LPS-stimulated U937 cells (ELISA); format: cell-based; settings: Homo sapiens, U-937; PMA-differentiated U937, 10 ng/ml LPS 0.5 hours; read-out: U937 cell activity test p-HSP27 IC50
Method: U937 cells were treated with 20 ng/ml PMA for differentiation overnight, and after replacement with a fresh culture medium, the U937 cells were rested overnight. After differentiation, the U937 cell were digested and counted, and 25,000 cells per well were seeded in a 96-well plate until the cells adhered to the wall. A compound concentration gradient was prepared, the cells were pretreated with the compound for 1 hour (the highest final concentration of the compound was 1 μM, diluted in 3-fold concentration gradient), and 10 ng/ml LPS (Lipopolysaccharides from Escherichia coli O111:B4) was added for stimulation for 0.5 hours. After the cells were washed with PBS, the cells were lysed with a lysis solution. p-Hsp27 in the cell lysate was detected by using Phospho-HSP27 (S78/S82) DuoSet IC ELISA kit. For specific steps, reference could be made to the standard steps provided by the kit manufacturer.
as §1, with “of p-Hsp27” for “of”, “of p-Hsp27” for “of TNF-α concentration”, “a well without LPS stimulation.” for “a culture medium well.”
Dose response curve fitting: Log(inhibitor) vs. response−Variable slope (four parameters) in GraphPad Prism 6 was used for fitting equation analysis of the compound concentration and the corresponding inhibition rate, and the curve was fitted to obtain the IC50 value of the compound.
as §4

p38-MK2 = p38-MK2 (Homo sapiens, UniProt P49137+Q16539); settings: patients with rheumatoid arthritis, preliminary clinical trial results; cited from earlier work
p38-MK2, sequence (Q16539 whole entry): as the sequence (Q16539 whole entry) above
p38-MK2, sequence (P49137 whole entry): as the sequence (P49137 whole entry) above

IC50 (TNF-α in U937 cells)	IC50 [1]	AUC(0-inf) ([2]; 5 mg/kg)	half-life ([2]; 5 mg/kg)	MRT ([2]; 5 mg/kg)	Cmax ([2]; 5 mg/kg)	Tmax ([2]; 5 mg/kg)	IC50 (p38α/MK2)	Selectivity ratio (p38 IC50 / p38/MK2 IC50) (p38α/MK2)	IC50 (p-Hsp27 in U937 cells)	AUC(0-inf) ([2]; 2 mg/kg)	half-life ([2]; 2 mg/kg)	MRT ([2]; 2 mg/kg)	Cmax ([2]; 2 mg/kg)	Tmax ([2]; 2 mg/kg)	SMILES	efficacy (p38-MK2)	safety and tolerability (p38-MK2)
0.12 nM	22.9 nM	22000 ng·h/mL	150 min	3.8 h	3760 ng/mL	0.5 h	0.14 nM	164	0.1 nM	–	–	–	–	–	[2H]C([2H])(Oc1cc2n(c(=O)c1Cl)-c1c(cnc(-c3ccnc(C(C)(C)O)n3)c1F)CCCC2)c1ncc(F)cc1F [Example 9-1, (R)-11-chloro-10-((3,5-difluoropyridin-2-yl)methoxy-d2)-1-fluoro-2-(2-(2-hydroxypropan-2-yl)pyrimidin-4-yl)-5,6,7,8-tetrahydro-12H-dipyrido[1,2-a:3′4′-g]azocin-12-one]	–	–
0.51 nM	16.5 nM	–	–	–	–	–	0.12 nM	138	0.56 nM	–	–	–	–	–	[2H]C([2H])(Oc1cc(C)n(-c2cc(-n3cccc(C(C)(C)NC(C)=O)c3=O)ncc2C)c(=O)c1Cl)c1ccc(F)cc1F [Example 13-1, (S)—N-(2-(3″-chloro-4″-((2,4-difluorophenyl)methoxy-d2)-5′,6″-dimethyl-2,2″-dicarbonyl-2H,2″H-[1,2′:4′,1″-terpyridin]-3-yl)propan-2-yl)acetamide]	–	–
1.2 nM	77.4 nM	–	–	–	–	–	0.71 nM	109	0.17 nM	–	–	–	–	–	[2H]C([2H])(Oc1cc2n(c(=O)c1Cl)-c1cc(-c3ccnc(C(C)(C)O)n3)ncc1CCCC2)c1ncc(F)cc1F [Example 1-1, (S)-11-Chloro-10-((3,5-difluoropyridin-2-yl)methoxy-d2)-2-(2-(2-hydroxypropan-2-yl)pyrimidin-4-yl)-5,6,7,8-tetrahydro-12H-dipyrido[1,2-a:3′,4′-g]azol-12-one]	–	–
0.12 nM	5.1 nM	–	–	–	–	–	0.05 nM	102	0.13 nM	–	–	–	–	–	[2H]C([2H])(Oc1cc(C)n(-c2cc(-n3cccc(C(C)(C)O)c3=O)ncc2C)c(=O)c1Cl)c1ccc(F)cc1F [Example 14-1, (S)-3″-chloro-4″-((2,4-difluorophenyl)methoxy-d2)-3-(2-hydroxypropan-2-yl)-5′,6″-dimethyl-2H,2″H-[1,2′:4′,1″-terpyridine]-2,2″-dione]	–	–
0.16 nM	15.3 nM	14200 ng·h/mL	162 min	2.9 h	4180 ng/mL	1 h	0.1 nM	153	0.15 nM	–	–	–	–	–	[2H]C([2H])(Oc1cc2n(c(=O)c1Cl)-c1c(cnc(-n3cc(F)c(C(C)(C)NC(C)=O)n3)c1F)CCCC2)c1ncc(F)cc1F [Example 6-1, (R)—N-(2-(1-(11-chloro-10-((3,5-difluoropyridin-2-yl)methoxy-d2)-1-fluoro-12-carbonyl-6,7,8,12-tetrahydro-5H-dipyrido[1,2-a:3′,4′-g]azocin-2-yl)-4-fluoro-1H-pyrazol-3-yl)propan-2-yl)acetamide]	–	–
–	–	–	–	–	–	–	–	–	–	–	–	–	–	–	Cc1cnc(-c2ccnc(C(C)(C)O)n2)cc1-n1c(C)cc(OCc2ncc(F)cc2F)c(Cl)c1=O [ATI-450]	outstanding and lasting efficacy	safe and tolerable
0.34 nM	49.1 nM	–	–	–	–	–	0.34 nM	144	0.35 nM	7350 ng·h/mL	84 min	2.5 h	2160 ng/mL	1 h	[2H]C([2H])(Oc1cc2n(c(=O)c1Cl)-c1c(cnc(-c3ccnc(C(C)(C)NC(C)=O)n3)c1F)CCCC2)c1ncc(F)cc1F [Example 7-1, (R)—N-(2-(4-(11-chloro-10-((3,5-difluoropyridin-2-yl)methoxy-d2)-1-fluoro-12-carbonyl-6,7,8,12-tetrahydro-5H-dipyrido[1,2-a:3,4′-g]azocin-2-yl)pyrimidin-2-yl)propan-2-yl)acetamide]	–	–
